Experimental data as given in patent publication US12678510B2, “Drug loaded peptide brush polymers” (priority 2020, dated 2026).
Peptide text beside a SMILES is read from it. * marks the point of attachment. X1 = O=C1C2C3C=CC(C3)C2C(=O)N1CC(=O)*

System: pronase
Assay: Proteolytic degradation assay with pronase (RP-HPLC, MALDI-TOF-MS)
Assay type: in vitro ADME
Conditions: Streptomyces griseus, pronase (isolated proteolytic enzyme) in DPBS; pronase 0.35 U/mL in DPBS, 37° C., 50 μM peptide, after 3 hours; read-out: peptide cleavage
Procedure: The stability of drug delivery systems serves as a basis for enhancing half-life of therapeutic cargos during the course of delivery to targeted areas. To evaluate the stability of peptide brush polymers, positively charged poly(GGSGSGK) and its single peptide analogue GGSGSGK were treated with pronase, a robust proteolytic enzyme isolated from the extracellular fluid of Streptomyces griseus. RP-HPLC and MALDI-TOF mass spectroscopy were used to quantify the cleavage of peptides (FIGS. 30-33). As expected, the peptide underwent rapid degradation in the presence of pronase, resulting in approximately 75% peptide cleavage after 3 hours.
Monomer Nor-GGSGSGK and polymer Poly(GGSGSGK) (50 μM, with respect to peptide concentration) were treated with pronase (0.35 U/mL) in DPBS at 37° C. After treatment, the enzyme was heat denatured at 65° C. for 15 min.

## NCCCC[C@H](NC(=O)CNC(=O)[C@H](CO)NC(=O)CNC(=O)[C@H](CO)NC(=O)CNC(=O)CN1C(=O)C2C3C=CC(C3)C2C1=O)C(N)=O (stereo partly shown) [GGSGSGK] (X1-GSGSGK-NH2; N-terminus assumed)
  metabolised at 3 h, 50 μM: ~75%
